Reference: PMC8198181, “Evaluation of Substituted N-Phenylpiperazine Analogs as D3 vs. D2 Dopamine Receptor Subtype Selective Ligands” (Molecules, 2021)

How the values were obtained:
DBA/2J mice = test: DOI-dependent head twitch response inhibition; type: in vivo, mouse; details: male DBA/2J mice, 10 mg/kg i.p., DOI 5 mg/kg, 30 min
Source text: First, we have previously published that D3 receptor selective compounds could attenuate a hallucinogen-dependent head twitch response (HTR) in male DBA/2J mice. […] Second, we previously reported that D3 vs. D2 dopamine receptor subtype selective ligands could attenuate L-dopa dependent abnormal involuntary movement (AIM) scores in unilaterally lesioned (hemiparkinsonian) male rats, which is a model for L-dopa-Induced Dyskinesia (LID).
Upon arrival DBA/2J mice (Jackson Labs) were allowed to acclimate for at least one week prior to testing. Mice were housed at ≤4 animals per cage with unlimited access to food and fresh water. The protocol for the HTR assessment has been previously reported. […]
However, a head twitch was defined as a rapid movement of the head, without the involvement of the front paws during grooming. […] At least two observers counted the number of head twitches by visual examination and the number of head twitches was recorded in 5-min cumulative intervals. […]
The effect of Group was assessed using two-way analysis of variance (ANOVA) with Time as the repeated measure. The data was further analyzed at each time point with a one-way ANOVA with Group as the factor followed by planned individual comparisons between different groups using a single degree-of-freedom F test involving the error term from the overall ANOVA when the Time and Group interaction was significant. […]

D3 dopamine receptor [1] = target: T1, D3 dopamine receptor (Homo sapiens, UniProt P35462); test: Forskolin-dependent adenylyl cyclase inhibition assay (cAMP-Glo, HEK cells); type: cell-based; parameters: expressed in transfected cells; host or cells: HEK293; details: human D3, test compound at 10x Ki, normalized to quinpirole 10,000 nM
Procedure: (§1) Quinpirole was used as a reference prototypic full agonist and haloperidol was used as a reference prototypic antagonist.
The forskolin-dependent adenylyl cyclase inhibition assay was performed using a cAMP-Glo Assay kit (Promega). For this assay cAMP stimulates protein kinase A (PKA) activity, which leads to a decrease in ATP levels and a decrease in the luciferase-coupled production of light. This is a 96 well plate assay using HEK cells stably transfected to express the human D3 dopamine receptor (10,000 cells/well/0.1 mL complete media). After removing media and rinsing with phosphate buffered saline, cells were incubated with 20 μL of forskolin (6000 nM) and test compound or vehicle. […] After cells, test compound (or vehicle) and forskolin (or vehicle) were incubated for 15 min, cells were lysed using 20 μL lysis buffer (provided with the kit) and mixed for 15 min at room temperature. A cAMP Detection Solution (40 μL) was added to each well, gently mixed for 60 s and incubated at room temperature for 20 min. The Kinase-Glo Solution was added (40 μL) to terminate the PKA reaction. The reaction mixture was gently mixed for 60 s and then incubated at room temperature for 10 min. The remaining ATP was detected via a luciferase reaction. The plates were read using an Enspire Alpha 2390 Multilabel Reader/Luminometer. Haloperidol (200 nM) and quinpirole (10,000 nM) was used as a prototypic reference antagonist and full agonist, respectively.
(§2) Figure 3 Comparison of the Efficacy of Phenylthiophene Analogs for Adenylyl Cyclase Inhibition and β-Arrestin Binding at Human D3 Dopamine Receptors. […] Values were normalized to reference full agonist quinpirole (10,000 nM).

D3 dopamine receptor [2] = target: T1, D3 dopamine receptor; test: β-arrestin binding assay (DiscoverX PathHunter, DRD3-U2OS cells); type: cell-based; parameters: host or cells: U2OS (PathHunter eXpress DRD3-U2OS); details: human D3, test compound at 10x Ki, normalized to quinpirole
Procedure: as §1
The β-arrestin binding assay was performed using a DiscoverX Pathhunter® kit according to the manufacturer’s instructions. PathHunter® eXpress β-Arrestin GPCR cells are engineered to co-express the ProLink™ (PK) tagged GPCR and the Enzyme Acceptor (EA) tagged β-Arrestin. Activation of the GPCR-PK induces β-Arrestin-EA recruitment, forcing complementation of the two β-galactosidase enzyme fragments (EA and PK). The resulting functional enzyme hydrolyzes substrate to generate a chemiluminescent signal. DRD3-U2OS cells were seeded according to kit instructions into white plastic 96-well plates (provided with the kit) 48 h prior to the assay in a volume of 100 μL/well using the Cell Plating Reagent (CPR) provided. Vehicle or test drug, diluted in CPR, was added to the designated wells and incubated for 90 min at 37 °C. Working detection solution (a component provided with the kit) was added to the wells and incubated for 1 h in the dark at room temperature. As discussed for the cyclase assay, an Enspire Alpha 2390 Multilabel Reader/Luminometer was used to detect the luminescent signal with haloperidol and quinpirole used as reference antagonist and full agonist, respectively.
as §2

T1 sequence (P35462 whole entry): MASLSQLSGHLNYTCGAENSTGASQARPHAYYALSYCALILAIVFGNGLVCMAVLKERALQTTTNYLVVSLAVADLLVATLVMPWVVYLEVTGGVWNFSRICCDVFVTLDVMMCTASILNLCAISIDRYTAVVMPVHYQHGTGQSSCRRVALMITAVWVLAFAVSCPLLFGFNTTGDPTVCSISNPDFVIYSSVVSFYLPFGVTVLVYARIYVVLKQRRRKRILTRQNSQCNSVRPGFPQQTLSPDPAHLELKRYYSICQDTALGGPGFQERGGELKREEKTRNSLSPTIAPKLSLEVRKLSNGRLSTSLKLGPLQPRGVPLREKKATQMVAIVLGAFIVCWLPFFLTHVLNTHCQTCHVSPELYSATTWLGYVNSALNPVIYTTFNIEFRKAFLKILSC

- efficacy in adenylyl cyclase inhibition assay (D3 dopamine receptor [1]): weak partial agonists
- efficacy in β-arrestin binding assay (D3 dopamine receptor [2]): weak partial agonists
Compound: O=C(NCCCCN1CCN(c2ccccc2F)CC1)c1ccc(-c2ccsc2)cc1 [Compound 6a]
- DOI-dependent head twitch response (DBA/2J mice): attenuated the number of head twitches
